Assay results taken from patent US20040072201A1, “Methods of identifying compounds that inhibit nonstop degradation of mRNA” (priority 2002, published 2004).
Values belong to the compound of their own block, whether it stands above or below them.

How the values were obtained:
[1] = test system: WT-PGK1 and Ter-poly(A)-PGK1 transcripts; assay: half-lives of WT-PGK1 and Ter-poly(A)-PGK1 transcripts in yeast treated with paromomycin; assay type: cell-based, Saccharomyces cerevisiae; conditions: 100 μg/ml CHX added during the last hour before half-life determination
Procedure: FIG. 2 depicts graphs of the half-lives of WT-PGK1 and Ter-poly(A)-PGK1 transcripts in wild-type-(WT) and SK17-deleted (ski7A) yeast strains treated with the indicated dose of paromomycin (mg/ml) (PM) for 20 hours. For cycloheximide (CHX) experiments, yeast were treated identically except 100 μg/ml of CHX was added during the last hour before half-life determination.
Any event that diminishes translational fidelity and promotes readthrough of termination codons could plausibly result in the generation of substrates for nonstop decay. In view of recent attempts to treat genetic disorders resulting from PTCs with long-term and high-dose aminoglycoside regimens, this may achieve medical significance. As a proof-of-concept experiment, we examined the performance of transcripts with one [Ter-poly(A)-PGK1] or multiple (WT-PGK1) in-frame termination codons (including those in the 3′ UTR) in yeast strains after treatment with paromomycin, which induces ribosomal readthrough.
27. All PGK1 minigene constructs were under the control of the GAL1 upstream activation sequence (UAS). […] Half-lives were determined by plotting the percent of mRNA remaining versus time on a semi-log plot. All half-lives were determined at 25° C. except for the ccr4Δ (performed at 30° C.) and dcp1-2 [performed after shift to the nonpermissive temp (37° C.) for 1 hour] experiments.

nonstop-PGK1 transcripts = assay: nonstop-PGK1 mRNA stability (half-life by Northern blot) in yeast; assay type: cell-based, Saccharomyces cerevisiae; conditions: treatment with translation inhibitor
Source text: In order to determine whether the presence of translational termination influences mRNA stability, we assayed PGK1 tran-scripts in Saccharomyces cerevisiae derived from the following constructs (3): wild-type PGK1 (WT-PGK1), a nonsense form of PGK1 harboring a PTC at codon 22 [PTC(22)-PGK1], and nonstop-PGK1 that was created by removing the bona fide termination codon and all in-frame termination codons in the 3′ UTR (untranslated region) from the WT-PGK1 transcript. Nonstop-PGK1 transcripts were as labile as their nonsense-containing counterparts. At least three trans-acting factors (Upf1p, Upf2p, and Upf3p) are essential for nonsense-mediated mRNA decay (NMD) in S. cerevisiae (4, 5). Remarkably, nonstop transcripts were not stabilized in strains lacking Upf1p, distinguishing the pathway of decay from NMD.
Additional experiments were performed to assess the role of translation in nonstop decay. […] It has been shown that translation into the 3′ UTR of selected transcripts can displace bound trans-factors that are positive determinants of message stability (13, 14). […]
27. […] Half-lives were determined by plotting the percent of mRNA remaining versus time on a semi-log plot. All half-lives were determined at 25° C. except for the ccr4Δ (performed at 30° C.) and dcp1-2 [performed after shift to the nonpermissive temp (37° C.) for 1 hour] experiments.

[2] = test system: cultured chicken hepatocellular carcinoma cells; assay: ratio of truncated to full-length GHR transcripts after translational arrest; assay type: cell-based; conditions: after treatment with translational inhibitor
[3] = test system: termination codon (UGA) in renilla luciferase ORF; assay: readthrough assay using a dual luciferase reporter construct; assay type: cell-based
Source text: FIG. 3 depicts the results of a readthrough assay using a dual luciferase reporter construct.
This example describes a readthrough assay that uses a dual lucifierase reporter construct. The firefly luciferase ORF is wild-type while translation of the renilla luciferase ORF is prevented by the presence of a termination codon (UGA). Cells were either untreated or treated with siRNAs directed against RRP4, an essential component of the exosome.

Compound: C[C@@H]1C[C@@H]([C@H](O)CC2CC(=O)NC(=O)C2)C(=O)[C@@H](C)C1 [cycloheximide]
- effect on paromomycin-induced decrease in stability of Ter-poly(A)-PGK1 and WT-PGK1 transcripts [1]: could be reversed
- stability of nonstop-PGK1 transcripts (nonstop-PGK1 transcripts): substantially increased the stability

Compound: CC[C@H]1CN2CCc3cc(OC)c(OC)cc3[C@@H]2C[C@@H]1C[C@H]1NCCc2cc(OC)c(OC)cc21 [emetine]
- ratio of truncated-to-full-length GHR transcripts [2]: dramatically increased

- readthrough, renilla:firefly ratio ([3]; exosome function inhibited by siRNAs directed against RRP4, increasing concentrations): dose-dependent increase in readthrough
Compound: gentamycin
- readthrough, renilla:firefly ratio ([3]; intact exosome function (control RNAi), increasing concentrations): do not result in a significant increase in readthrough
